Experimental findings from US8409581B2, “Compounds for treating amyloidoses” (Affiris AG, priority 2008, dated 2013) are described below.

For test [1], the system named is monoclonal antibody MV-002. Briefly: In vitro binding assay (ELISA) of mimotopes to parental antibody. More on the design: species or system mice. The note with it: peptide coupled to BSA bound to ELISA plates (1 μM); parental antibody MV-002. How it is done: 1. In Vitro Binding Assay (ELISA)
Peptides derived from Phage Display as well as variants thereof were coupled to BSA and bound to ELISA plates (1 μM; as indicated in the respective figures) and subsequently incubated with the monoclonal antibody that was used for the screening procedure to analyse binding capacity of identified peptides.
In general terms: ELISA stands for enzyme-linked immunosorbent assay.

Test [2] relates to monoclonal antibody MV-002 binding to the original epitope. The test is described as follows: In vitro inhibition assay (ELISA). More on the design: species or system mice. The note with it: for inhibition in in vitro inhibition/competition assay: MV-002, original epitope coated on ELISA plates; for Inhibition Capacity (competition code): OD at 5 ug peptide compared to original peptide, MV-002. How it is done:
2. In Vitro Inhibition Assay (ELISA)
Different amounts of peptides (concentrations ranging from 5 μg to 0.03 μg; serial dilutions), derived from Phage Display were incubated with the monoclonal antibody that was used for the screening procedure. Peptides diminishing subsequent binding of the antibody to the original epitope coated on ELISA plates were considered as inhibiting in this assay.

Test [3] relates to p1454 (unrelated sequence). Briefly: Mimotope vaccination of mice, serum titer ELISA against irrelevant peptide. The note with it: 30 μg peptide-KLH, alum, s.c., FIG. 4. The format is in vivo, C57/B16 mice. How it is done: (§1) Inhibiting as well as non-inhibiting peptides were coupled to KLH and injected into mice (wildtype C57/B16 mice; subcutaneous injection into the flank) together with an appropriate adjuvant (aluminium hydroxide). Animals were vaccinated 3-6 times in biweekly intervals and sera were taken biweekly as well. Titers to injected peptides, as well as to an irrelevant peptide were determined with every serum. Furthermore, titers against the recombinant human Aβ protein, and against original peptides were determined respectively. In general sera were analysed by reaction against peptides coupled to Bovine Serum Albumin (BSA) and recombinant full length proteins which were immobilised on ELISA plates. Titers were determined using anti mouse IgG specific antibodies. For detailed results see FIGS. 4, 5 and 6 respectively.
(§2) Female C57/b16 mice, 5-6 mice per group, were subcutaneously immunized with 30 μg peptide coupled to KLH. Control groups were administered original epitope-KLH conjugates respectively. As adjuvant alum was used (always 1 mg per mouse). […] The in vitro ELISA assay to determine the antibody titer was performed with sera of single mice after each vaccination in a two week interval (see FIGS. 6 and 7 respectively). Titers were calculated as OD max/2 in all figures shown. The wells of the ELISA plate were coated with mimotope-BSA conjugate and an irrelevant peptide-BSA conjugate (negative control). The positive control was performed by reaction of the parental antibody with the respective mimotope-BSA conjugate. The detection was performed with anti-mouse IgG. Additionally, recombinant proteins were immobilised on ELISA plates and sera reacted accordingly. FIGS. 4, 5 and 6 show representative examples for assays used to characterise mimotopes in vivo.

A further test concerns injected peptide. Briefly: Mimotope vaccination of mice, serum titer ELISA against injected peptide. The format is in vivo, C57/B16 mice. Particulars: 30 μg peptide-KLH, alum, s.c., FIG. 4. How it is done: as §1, §2
In another test the test system is original epitope p4377. The test is described as follows: Mimotope vaccination of mice, serum titer ELISA against original epitope. The format is in vivo, C57/B16 mice. Particulars: 30 μg peptide-KLH, alum, s.c., FIG. 5. How it is done:
as §1, §2

Test [4] deals with amyloid plaques (Aβ40/42) in brain. Briefly: Area occupied by amyloid plaques in Tg2576 AD mouse model. The note with it: Tg2576 mice. The format is in vivo.

With “GEIWFEGC [p4680, MV-002 mimotope peptide]”, the “Binding Capacity (binding code; OD halfmax 1:X, dilution factor of the parental AB)” value (shortened to “Binding Capacity”) in test [1] was 3 (strong binding :>320000). For the same sequence, in test [2], the “inhibition in in vitro inhibition/competition assay” value is listed as “active in in vitro inhibition assays” and the “Inhibition Capacity (competition code)” value was 2 (strong inhibition (as original epitope; OD of peptide below 2, 3 times of original peptide)). The “unspecific immune response against unrelated sequence (p1454)” value (“unspecific immune response” below) in test [3] is listed as “failed to induce a relevant unspecific immune response”. The “immune response against injected peptide” value in the test on injected peptide was “elicited immune responses”. The “immune response against the original epitope p4377” value with original epitope p4377 is on record as “mounted detectable immune responses”.
Consider “GEIYFERC [p4681, MV-002 mimotope peptide]”, for which the “Binding Capacity” value in test [1] is recorded as 3 (strong binding :>320000). Further, in test [2], the “inhibition in in vitro inhibition/competition assay” value was “active in in vitro inhibition assays” and the “Inhibition Capacity (competition code)” value is 2 (strong inhibition (as original epitope; OD of peptide below 2, 3 times of original peptide)). Besides, in test [3], the “unspecific immune response” value was “failed to induce a relevant unspecific immune response”. The “immune response against injected peptide” value with injected peptide is recorded as “elicited immune responses”. The “immune response against the original epitope p4377” value in the test on original epitope p4377 was “mounted detectable immune responses”.
For the sequence “HMRLFFNC [p4670, MV-002 mimotope peptide]”, the “Binding Capacity” value in test [1] is listed as 3 (strong binding :>320000). In addition, in test [2], the “inhibition in in vitro inhibition/competition assay” value is “active in in vitro inhibition assays” and the “Inhibition Capacity (competition code)” value is on record as 1 (Weaker than original epitope (OD of peptide below 4, 6 times of original peptide)). In addition, the “unspecific immune response” value in test [3] is “failed to induce a relevant unspecific immune response”. Moreover, in the test with injected peptide, the “immune response against injected peptide” value is “elicited immune responses”. Further, the “immune response against the original epitope p4377” value in the test on original epitope p4377 is listed as “mounted detectable immune responses”.
Consider “HQKMIFAC [p4675, MV-002 mimotope peptide; used as KLH conjugate vaccine in Tg2576 mice]”, for which the “reduction of area occupied by amyloid plaques following mimotope treatment” value in test [4] (group 2 versus PBS-ALUM control) is reported as 31%. Besides, the “average area occupied by amyloid plaques” value in test [4] (peptide-KLH conjugate adsorbed to ALUM, s.c. 6 times at monthly intervals, mAb 3A5 staining, control 0.35%) is 0.24%. Moreover, the “Binding Capacity” value in test [1] is reported as 3 (strong binding :>320000). Further, in test [2], the “inhibition in in vitro inhibition/competition assay” value was “active in in vitro inhibition assays” and the “Inhibition Capacity (competition code)” value is 2 (strong inhibition (as original epitope; OD of peptide below 2, 3 times of original peptide)). Further, in test [3], the “unspecific immune response” value is on record as “failed to induce a relevant unspecific immune response”. Also, the “immune response against injected peptide” value in the test on injected peptide is on record as “elicited immune responses”. The “immune response against the original epitope p4377” value with original epitope p4377 is “mounted detectable immune responses”.
For “SHTRLYFC [p4403, MV-002 mimotope peptide]”, in test [1], the “Binding Capacity” value is on record as 1 (weak binding :<40000). In addition, the “inhibition in in vitro inhibition/competition assay” value in test [2] is given as “without inhibition capacity”. In addition, the “unspecific immune response” value in test [3] is listed as “failed to induce a relevant unspecific immune response”. In the test on injected peptide, the “immune response against injected peptide” value was “elicited immune responses”. Moreover, the “immune response against the original epitope p4377” value with original epitope p4377 is given as “mounted detectable immune responses”.
